The results in this text go back to patent US9994541B2, “Nitroalkene trolox derivatives and methods of use thereof in the treatment and prevention of inflammation related conditions” (Institut Pasteur de Montevideo, priority 2016, dated 2018).

One data set has as its system THP-1 cells. The data set is described as follows: Cell viability (MTT) of THP-1 macrophages stimulated with LPS and ATP. It counts as cell-based. The following applies: THP-1 macrophages activated by LPS or ATP, compound 0.5-20 μM together with first or second signal. How it is done: (§1) FIGS. 6A and 6B illustrate the effect of NATx0 on cell viability and NLRP3 inflammasome activation. THP-1 cells were differentiated into macrophages (PMA 200 nM, 48 hours). […] The cells were treated with NATx0 at 0.5 μM, 1.0 μM, 2.5 μM, 5.0 μM, 10 μM and 20 μM concentrations together with the first signal or the second signal. Cell viability was measured by MTT assay. Supernatant was stored.
(§2) At the first signal, we only observed a full inhibition of the inflammasome at 20 μM.

For a further data set, the system named is serum levels of IL-1β. The data set is described as follows: LPS-induced inflammatory response in C57BL/6 mice, serum IL-1β by ELISA. The following applies: 20 mg/kg i.p. 1 hour before 10 mg/kg LPS i.p., 2 hours after LPS. The format is in vivo. How it is done:
In vivo testing was carried out in C57BL/6 mice. The mice were injected intraperitoneally (“i.p.”) with 20 mg/kg NATx0 or a control (DMSO) 1 hour before i.p. injection of 10 mg/kg LPS Escherichia coli 055:B5 (Sigma-Aldrich). After 2 hours the mice were killed, and serum levels of IL-1β were measured by ELISA to determine inflammatory response.

In the next data set the test system is NLRP3 inflammasome. The data set is described as follows: NLRP3 inflammasome activation in THP-1 macrophages, IL-1β by ELISA. The format is cell-based. How it is done: as §1
In FIGS. 7A and 7B, supernatant stored from the previously described experiment were measured for IL-1β by ELISA.
as §2

In a further data set the test system is GCLM. The data set is described as follows: Western blot of GCLM protein expression in Raw 264.7 macrophages. It counts as cell-based, murine. The conditions noted are these: Raw 264.7 cells, 5 μM, 18 hours. How it is done: (§3) Raw 264.7 cells, a murine macrophage cell line catalog no. TIB-71TM (ATCC, Manassas, Va.), were treated with NATx0 or NATx5 (5 μM) for 18 hours. Cells were lysed, and total protein concentration was measured with Pierce BCA assay (Thermo Fisher Scientific, Rockford, Ill.). For electrophoresis, 30 μg of protein was used in each line. The proteins were electrophoresed on a Tris/glycine SDS-polyacrylamide gradient gel (10-15%) and transferred to nitrocellulose membrane. The primary antibodies used for detection was rabbit polyclonal anti-HO-1 or anti-GCLM (Abcam, Cambridge, Mass.). Blots were visualized using horseradish peroxidase-conjugated secondary antibodies and ECL Plus detection system (GE Healthcare, Little Chalfont, UK). Blots were detected with a scanner. Protein expression was quantified with ImageQuant TL7.0 software (GE Healthcare, Little Chalfont, UK).

The next data set has as its system NF-κB/p65. The data set is described as follows: LPS-induced NF-κB/p65 nuclear translocation in THP-1 macrophages (immunofluorescence). The format is cell-based. The following applies: 10 uM, 2 hs before LPS (1 ug/mL). An excerpt: Nuclear factor kappa B (NF-κB) represents a family of pro-inflammatory transcription factors, present in all eukaryotic cells, which regulate inducible expression of wide ranging genes involved in immune responses and cell-cycle regulation. Activation of NF-κB is accompanied by nuclear translocation of NF-κB. […] Specifically, FIG. 11 illustrates immunofluorescence and epifluorescence microscopy analysis showing the effect of NATx0 on LPS-induced NF-κB/p65 subcellular localization in THP-1 macrophages.

Another data set relates to HO-1. In words: Western blot of HO-1 protein expression in Raw 264.7 macrophages. It counts as cell-based, murine. The following applies: Raw 264.7 cells, 5 μM, 18 hours. How it is done:
as §3

Data set [1] in a line: Michael adduct formation with glutathione (UV-visible spectra, stopped-flow kinetics). It counts as physicochemical. The conditions noted are these: 25 μM compound, absorbance at 260 nm, 25° C. How it is done: In FIG. 3, 130 μM NATx0 was incubated with 2 mM Glutathione (Sigma) in 100 mM pH 7 phosphate buffer. UV-visible spectra was acquired by a Varian Cary 50 Bio. Scans were taken every min up to 15 min.
FIG. 4 illustrates a second order rate constant of the reaction between NATx0 and GSH. Stopped-flow kinetic measurements were performed using a Rx 2000 stopped flow analyzer (Applied Photophysics). Mixutres of 150 μL NATx0 (25 μM) and solutions of BME at 0.54 mM, 1.09 mM, 1.64 mM, 2.18 mM, and 2.73 mM concentrations.

Data set [2] can be described thus: Stability in polyethylene glycol 300-400 at 37° C. The conditions noted are these: PEG 300 to PEG 400, 37° C., two weeks, RP-HPLC. It counts as physicochemical. How it is done: FIG. 10 presents the incubation of NATx0 incubated in PEG 300 to PEG 400 at 37° C. for two weeks. At each time point, an aliquot was extracted with methanol and analyzed by reverse phase chromatography as before. After two weeks in 37° C. in PEG, 50% of the initial concentration of NATx0 was recovered.

Another data set deals with RAW 264.7 cells. The data set is described as follows: Cytotoxicity in RAW 264.7 cells (MTT assay). The format is cell-based, murine. The following applies: Mus musculus, RAW264.7, 24 h treatment, read-out: IC50 (cell viability). How it is done: FIG. 8 NATx0 cell cytotoxicity was evaluated in RAW 264.7 cells at 1, 5, 10, 50 and 100 μM in DMSO. Cells were treated for 24 h with NATx0 and then MTT assay was performed. The absorbance at 570 nm was measured for each condition by triplicate. The % cell liability was calculated using control group (DMSO, without treatment). The half maximal inhibitory concentration (IC50) was calculated after % cell viability was plotted against the concentration of NATx0 and fitted to an exponential function using OriginLab software (version 8.0).

Data set [3] is described as follows: Michael adduct formation with β-mercaptoethanol (UV-visible spectra, stopped-flow kinetics). The format is physicochemical. The following applies: 25 μM compound, BME 0.54-2.73 mM, absorbance at 260 nm, 25° C. How it is done:
UV-visible spectra was acquired by a Varian Cary 50 Bio. Scans were taken every min up to 15 min.
In FIG. 2, it is shown that the reaction between NATx0 and BME was determined to be a second order rate constant. Stopped-flow kinetic measurements were performed using a Rx 2000 stopped flow analyzer (Applied Photophysics). Mixutres of 150 μL NATx0 (25 μM) and solutions of BME at 0.54 mM, 1.09 mM, 1.64 mM, 2.18 mM, and 2.73 mM concentrations.

For the compound `Cc1c(C)c2c(c(C)c1O)CCC(C)(/C=C/[N+](=O)[O-])O2` (racemic) [NATx0, (±)-2,5,7,8-tetramethyl-2-[(E)-2-nitrovinyl]chroman-6-ol], the “cell mortality (cell viability by MTT)” value with THP-1 cells is recorded as “does not induce an increase in cell mortality”. The “inflammatory response (serum IL-1β)” value in the data set with serum levels of IL-1β is reported as “did not increase”. Besides, the “concentration giving full inhibition of the inflammasome” value in the data set with NLRP3 inflammasome (compound applied together with the first signal (LPS 250 ng/mL, 3 hours)) turned out to be 20 µM. The “concentration at which NLRP3 inflammasome activation is already inhibited” value in the data set on NLRP3 inflammasome (compound applied together with the second inflammasome-activating signal) was 5 µM. The “inhibition of inflammasome activation (IL-1β)” value with NLRP3 inflammasome (compound applied together with the second signal (ATP 5 mM, 45 minutes), 0.5-20 μM) was “inhibited inflammasome activation in dose dependent manner”. For the same compound, in the data set with GCLM, the GCLM protein expression result is reported as “induced the expression”. Besides, the “LPS-induced NF-κB/p65 nuclear translocation” value with NF-κB/p65 was “no change from the negative control”. Besides, in the data set on HO-1, the HO-1 protein expression result is “induced the expression”. The “second order rate constant of the reaction with GSH” value in data set [1] came out at 23.45 M⁻¹ s⁻¹. This compound gave an initial concentration recovered in data set [2] of 50%. Besides, in the data set on RAW 264.7 cells, the half-inhibitory concentration (IC50) came out at 24 µM. Also, the “second order rate constant of the reaction with BME” value in data set [3] came out at 23.45 M⁻¹ s⁻¹.
As for `CCC/C(=C\C1(C)CCc2c(C)c(O)c(C)c(C)c2O1)[N+](=O)[O-]` (racemic) [NATx5, (±)-2,5,7,8-tetramethyl-2-[(E)-2-nitropent-1-en-1-yl]chroman-6-ol], the GCLM protein expression entry with GCLM was “induced the expression”. In addition, in the data set with HO-1, the HO-1 protein expression result is “induced the expression”.
